Reference: patent publication US20240400564A1 (Syndax Pharmaceuticals, Inc, priority 2021, published 2024)

Key:
[1] = target: T1, human Menin and N-terminal portion of human MLL (amino acids 4-43) (Homo sapiens, UniProt O00255); test: Menin-MLL competition assay (HTRF); type: binding; details: 1 hr incubation
T1 construct: H-FL-Menin diluted to 4 nM in assay buffer
T1 sequence (O00255 1-610): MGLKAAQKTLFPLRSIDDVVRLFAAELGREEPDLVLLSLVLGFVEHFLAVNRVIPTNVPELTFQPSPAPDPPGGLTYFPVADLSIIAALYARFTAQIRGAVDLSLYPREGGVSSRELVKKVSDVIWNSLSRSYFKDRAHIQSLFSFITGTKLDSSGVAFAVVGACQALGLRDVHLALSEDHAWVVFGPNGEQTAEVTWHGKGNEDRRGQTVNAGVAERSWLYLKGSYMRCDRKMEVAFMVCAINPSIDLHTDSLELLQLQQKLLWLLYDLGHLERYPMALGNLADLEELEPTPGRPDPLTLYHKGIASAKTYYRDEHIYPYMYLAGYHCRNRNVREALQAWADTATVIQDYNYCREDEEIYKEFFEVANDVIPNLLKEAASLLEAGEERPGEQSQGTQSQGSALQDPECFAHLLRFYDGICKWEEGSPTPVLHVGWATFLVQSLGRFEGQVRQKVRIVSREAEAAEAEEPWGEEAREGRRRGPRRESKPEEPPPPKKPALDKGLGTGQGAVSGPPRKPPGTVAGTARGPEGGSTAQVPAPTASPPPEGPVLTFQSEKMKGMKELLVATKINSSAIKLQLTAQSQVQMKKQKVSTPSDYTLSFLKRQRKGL
Excerpt: Menin-MLL is a competition assay between human Menin and N-terminal portion of human MLL representing amino acids 4-43 of the protein. The interaction between Menin and MLL peptide was monitored by HTRF employing Terbium labeled anti-His6 antibody directed to the N-terminal His6-tag on recombinant Menin and FITC group covalently attached to the MLL peptide. The N-terminal fragment of MLL, retained in all MLL fusion proteins, is involved in the interactions with Menin, and this protein-protein interaction is critical for the MLL fusion proteins mediated leukemogenic transformations.
For IC50 determination test compounds were prepared as 10 mM DMSO stock solutions. Considering DMSO as the vehicle in the assay system. Lower sub-stocks of 50 μM were prepared from the 10 mM stock solution. To test the compounds in assay, 3.16-fold serial dilutions are made in 100% DMSO. Mid-stock of 50×compounds (50 μM) were serially diluted (3.16 fold) in 100% DMSO in Polypropylene plate. In assay plate 1 micro-litre of the previously prepared compound dilution was stamped. H-FL-Menin diluted to 4 nM in assay buffer (50 mM Tris-HCl, pH 7.4, 50 mM NaCl, freshly prepared 1 mM DTT, 0.01% BSA, 0.005% Triton X-100) was pre-incubated with 8 nM anti-His6-Tb for 30 min at room temperature. FITC-MLL-4-43 was diluted to 2 nM in assay buffer and 25 μL was dispensed into each well of the assay plate followed by addition of 25 μl of pre-incubated H-FL-Menin and anti-His6-Tb mixture. Final concentration H-FL-Menin diluted to 1 nM in assay plate with 2 nM anti-His6-Tb and 1 nM FITC-MLL-4-43. After 1 hr incubation at room temperature, the HTRF signal was measured on the Spark multi-label plate reader. Resulting data were captured as a ratio of RFU520/RFU485×1000. The max values were obtained from 0% inhibition in presence of 2% DMSO and the min. values were 100% inhibition in presence of 1 μM reference compound.

hERG = hERG (Homo sapiens, UniProt Q12809); test: Patch clamp assay (hERG tail currents, whole-cell)
hERG, sequence (Q12809 whole entry): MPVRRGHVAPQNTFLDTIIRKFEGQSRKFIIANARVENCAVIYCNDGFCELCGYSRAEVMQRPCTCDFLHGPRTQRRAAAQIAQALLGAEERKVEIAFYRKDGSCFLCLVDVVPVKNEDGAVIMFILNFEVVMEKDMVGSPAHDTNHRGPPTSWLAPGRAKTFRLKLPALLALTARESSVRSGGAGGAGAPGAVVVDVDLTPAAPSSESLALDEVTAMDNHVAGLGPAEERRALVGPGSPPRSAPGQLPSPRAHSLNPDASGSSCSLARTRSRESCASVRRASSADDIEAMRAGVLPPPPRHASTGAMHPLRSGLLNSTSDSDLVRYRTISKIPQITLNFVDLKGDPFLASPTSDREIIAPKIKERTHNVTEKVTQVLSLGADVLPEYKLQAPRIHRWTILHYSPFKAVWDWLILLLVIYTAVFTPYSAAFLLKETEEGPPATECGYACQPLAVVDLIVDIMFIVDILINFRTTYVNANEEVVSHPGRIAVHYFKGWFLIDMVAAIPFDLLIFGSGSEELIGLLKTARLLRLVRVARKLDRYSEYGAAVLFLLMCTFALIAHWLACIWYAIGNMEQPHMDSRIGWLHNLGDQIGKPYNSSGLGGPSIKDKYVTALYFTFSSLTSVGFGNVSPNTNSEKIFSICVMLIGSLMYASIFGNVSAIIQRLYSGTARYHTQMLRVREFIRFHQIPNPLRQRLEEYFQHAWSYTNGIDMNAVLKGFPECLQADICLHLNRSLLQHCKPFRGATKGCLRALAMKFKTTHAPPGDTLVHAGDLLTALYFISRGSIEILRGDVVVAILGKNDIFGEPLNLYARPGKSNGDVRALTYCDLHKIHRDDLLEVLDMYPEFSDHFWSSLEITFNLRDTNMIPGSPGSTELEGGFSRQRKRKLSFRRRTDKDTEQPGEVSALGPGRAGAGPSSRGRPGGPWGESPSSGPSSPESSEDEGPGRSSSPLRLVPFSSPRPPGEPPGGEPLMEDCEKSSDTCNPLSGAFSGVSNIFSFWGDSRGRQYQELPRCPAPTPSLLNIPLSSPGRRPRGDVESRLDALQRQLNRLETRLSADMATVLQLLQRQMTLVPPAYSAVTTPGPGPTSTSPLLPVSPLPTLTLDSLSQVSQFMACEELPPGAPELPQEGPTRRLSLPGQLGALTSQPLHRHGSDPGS

CCN(C(=O)c1cc(F)ccc1Oc1cncnc1N1CC2(CCN(C[C@@H]3CC[C@@H](NS(C)(=O)=O)CO3)CC2)C1)C(C)C [Example 1, N-Ethyl-5-fluoro-N-isopropyl-2-((4-(7-(((2S,5R)-5-(methylsulfonamido)tetrahydro-2H-pyran-2-yl)methyl)-2,7-diazaspiro[3.5]nonan-2-yl)pyrimidin-5-yl)oxy)benzamide]
IC50 [1]: < 100 nM | hERG % Remaining (hERG; 10 μM compound): +++ (≥66%) | hERG % Remaining (hERG; 30 μM compound): ++ (233% and ≤66%)

CCN(C(=O)c1cc(F)ccc1Oc1cncnc1N1CC2(CCN(C[C@@H]3CC[C@@H](NS(=O)(=O)CC)CO3)CC2)C1)C(C)C [Example 2, N-Ethyl-2-((4-(7-(((2S,5R)-5-(ethylsulfonamido)tetrahydro-2H-pyran-2-yl)methyl)-2,7-diazaspiro[3.5]nonan-2-yl)pyrimidin-5-yl)oxy)-5-fluoro-N-isopropylbenzamide]
IC50 [1]: < 100 nM | hERG % Remaining (hERG; 10 μM compound): +++ (≥66%) | hERG % Remaining (hERG; 30 μM compound): +++ (≥66%)

CCN(C(=O)c1cc(F)ccc1Oc1cncnc1N1CC2(CCN(C[C@@H]3CC[C@@H](NS(=O)(=O)C4CC4)CO3)CC2)C1)C(C)C [Example 4, 2-((4-(7-(((2S,5R)-5-(Cyclopropanesulfonamido)tetrahydro-2H-pyran-2-yl)methyl)-2,7-diazaspiro[3.5]nonan-2-yl)pyrimidin-5-yl)oxy)-N-ethyl-5-fluoro-N-isopropylbenzamide]
IC50 [1]: < 100 nM | hERG % Remaining (hERG; 10 μM compound): +++ (≥66%) | hERG % Remaining (hERG; 30 μM compound): +++ (≥66%)

C[C@H]1COCCN1C(=O)c1cc(F)ccc1Oc1cncnc1N1CC2(CCN(C[C@@H]3CC[C@@H](NS(=O)(=O)C4CC4)CO3)CC2)C1 [Example 40, N-((3R,6S)-6-((2-(5-(4-Fluoro-2-((S)-3-methylmorpholine-4-carbonyl)phenoxy)pyrimidin-4-yl)-2,7-diazaspiro[3.5]nonan-7-yl)methyl)tetrahydro-2H-pyran-3-yl)cyclopropanesulfonamide]
IC50 [1]: < 100 nM

CCN(C(=O)c1cc(F)ccc1Oc1cncnc1N1CC2(CCN(C[C@@H]3CC[C@@H](NC(=O)NCC4CC4)CO3)CC2)C1)C(C)C [Example 42, 2-((4-(7-(((2S,5R)-5-(3-(Cyclopropylmethyl)ureido)tetrahydro-2H-pyran-2-yl)methyl)-2,7-diazaspiro[3.5]nonan-2-yl)pyrimidin-5-yl)oxy)-N-ethyl-5-fluoro-N-isopropylbenzamide]
IC50 [1]: < 100 nM

CCS(=O)(=O)N[C@@H]1CC[C@@H](CN2CCC3(CC2)CN(c2ncncc2Oc2ccc(F)cc2C(=O)N(C(C)C)[C@@H]2CCOC2)C3)OC1 [Example 46, 2-((4-(7-(((2S,5R)-5-(Ethylsulfonamido)tetrahydro-2H-pyran-2-yl)methyl)-2,7-diazaspiro[3.5]nonan-2-yl)pyrimidin-5-yl)oxy)-5-fluoro-N-isopropyl-N-((R)-tetrahydrofuran-3-yl)benzamide]
IC50 [1]: < 100 nM

CCS(=O)(=O)N[C@@H]1CC[C@@H](CN2CCC3(CC2)CN(c2ncncc2Oc2ccc(F)cc2C(=O)N(C(C)C)C2COC2)C3)OC1 [Example 48, 2-((4-(7-(((2S,5R)-5-(Ethylsulfonamido)tetrahydro-2H-pyran-2-yl)methyl)-2,7-diazaspiro[3.5]nonan-2-yl)pyrimidin-5-yl)oxy)-5-fluoro-N-isopropyl-N-(oxetan-3-yl)benzamide]
IC50 [1]: < 100 nM

COCCN(C(=O)c1cc(F)ccc1Oc1cncnc1N1CC2(CCN(C[C@@H]3CC[C@@H](NS(=O)(=O)C4CC4)CO3)CC2)C1)C(C)C [Example 51, 2-((4-(7-(((2S,5R)-5-(Cyclopropanesulfonamido)tetrahydro-2H-pyran-2-yl)methyl)-2,7-diazaspiro[3.5]nonan-2-yl)pyrimidin-5-yl)oxy)-5-fluoro-N-isopropyl-N-(2-methoxyethyl)benzamide]
IC50 [1]: < 100 nM
